US9739767B2, “Method of screening for plant defense activators, plant defense activators, and method of enhancing immune response” (TOKYO UNIVERSITY OF SCIENCE FOUNDATION, priority 2010, dated 2017)

B1: cryptogein (protein, UniProt P15570 21-118, looked up)
Beta-elicitin cryptogein: TACTATQQTAAYKTLVSILSDASFNQCSTDSGYSMLTAKALPTTAQYKLMCASTACNTMIKKIVTLNPPNCDLTVPTSGLVLNVYSYANGFSNKCSSL
notes: an elicitin derived from oomycete, Phytophthora cryptogea; trigger material (elicitor)

Tests used:
OsWRKY45 = conditions: rice; cited from earlier work
[1] = system: innate immunity in tobacco plant; experiment: Innate immunity gene expression (PR1a, PR1b) in tobacco seedlings after cryptogein; type: in vivo, Nicotiana tabacum; conditions: 6 days on compound, cryptogein 2000 nM, 0, 1 and 24 h (FIG. 4)
Procedure: (§1) Total RNA was isolated from plant cells using Trizol (Invitrogen, Carlsbad, Calif., USA) reagent in accordance with the manufacturer's protocol and quantified using a spectrophotometer. First-strand cDNA was synthesized from 3 μg total RNA with an oligo-dT primer and reverse transcriptase.
(§2) Real-time PCR was performed using an ABI PRISM 7300 sequence detection system (Applied Biosystems, Foster City, Calif., USA) with SYBR Green real-time PCR Master Mix (TOYOBO, Osaka, Japan) and the gene-specific primers. PCR amplification was performed with an initial denaturation at 95° C. for 10 min followed by 40 cycles of incubations at 95° C. for 15 s, 60° C. for 15 s, and 72° C. for 45 s. Relative mRNA abundances were calculated using the comparative Ct method. Actin or tubulin was used as an internal control. The following primers were used in the experiment.
Tobacco seedlings were grown on MS plate for 7 days and then the seedlings were transferred to MS plates containing chemical compounds. After grown for 6 days, cryptogein (2000 nM) was added to the medium and the samples for RNA extraction were collected at the indicated time (0, 1 and 24 h).

[2] = system: salicylic acid-dependent defense pathway and jasmonic acid-dependent defense pathway; experiment: Defense gene expression (PR1, PDF1.2) in Arabidopsis seedlings, real-time RT-PCR; type: in vivo, Arabidopsis thaliana; conditions: Arabidopsis seedlings on MS plates containing compound for 3 or 6 days (FIG. 2)
Procedure: as §1, §2
Arabidopsis seedlings were grown on MS plate for 12 days and then the seedlings were transferred to MS plates containing chemical compounds. After grown for 3 or 6 days, the samples for RNA extraction were collected.

innate immunity in rice = experiment: Innate immunity gene expression (PBZ1, WRKY45) in rice seedlings after N-acetylchitoheptaose; type: in vivo, Oryza sativa; conditions: 2 days on compound, [GlcNAc]7 10 μM, observed 24 hours after elicitor (FIG. 5)
[3] = system: Pseudomonas syringae pv tomato (Pst) DC3000; experiment: Pathogen infection assay in Arabidopsis thaliana (Col-0); type: in vivo; conditions: Arabidopsis thaliana (Col-0) irrigated with compound for 5 days, dip inoculation with Pst DC3000, 3 days (FIG. 3)
Procedure: Arabidopsis thaliana (Col-0) were grown in sterilized potting soil (Kureha) in plastic pots (5 cm×5 cm×5 cm) inside a growth chamber under a 16 h-8 h light-dark regimen at 22° C. with 60% humidity. After grown for 3 weeks, plants were irrigated with chemical compounds for 5 days.
Pseudomonas syringae pv tomato (Pst) DC3000 was cultured in nutrient broth medium (Eiken Chemical) for 24 h at 28° C., and a bacterial suspension was prepared in 10 mM MgCl2 (2×10^5 colony-forming units per mL). Challenge inoculation was performed by dipping the plants in bacterial solution. After incubation for 3 days at 22° C., the leaves were harvested from the inoculated plants. Three to four leaves from different plants were combined, weighed, and then homogenized in 10 mM MgCl2; the homogenate was then plated on nutrient broth agar containing rifampicin (50 mg/L) at appropriate dilutions. After incubation for 2 days at 28° C., the number of rifampicin-resistant bacterial colonies was counted. More than six homogenized samples were prepared for each experiment.

tobacco leaves = experiment: Salicylic acid accumulation in tobacco leaves after cryptogein; type: in vivo; conditions: tobacco leaves treated with 2,000 nM cryptogein; range from several thousand, varying with conditions
Procedure: In the case of tobacco BY-2 cells compared to normal tobacco plant, the salicylic acid accumulation level of untreated tobacco BY-2 cells is from 10 to 20 ng/g (fresh weight), while the salicylic acid accumulation level of untreated tobacco leaves is several hundred ng/g (fresh weight). When treated with 2,000 nM cryptogein, the salicylic acid accumulation level of treated tobacco BY-2 cells increases to a level of approximately from 100 to 150 ng/g (fresh weight), while the salicylic acid accumulation level of treated tobacco leaves increases to, though varying depending on conditions, a level in the range of from several thousand ng/g (fresh weight) to 10,000 ng/g (fresh weight).

| Molecule | enhancement of immune response after treatment with cryptogein [1] | activation of salicylic acid-dependent and jasmonic acid-dependent defense pathways [2] | further results |
| --- | --- | --- | --- |
| c1ccc2snnc2c1 [BTH, benzothiadiazole] | – | – | time to upregulation of OsWRKY45 after treatment (OsWRKY45): ≤ 3 h |
| O=c1cc(N2CCNCC2)oc2c(-c3ccccc3)cccc12 [Compound 2, LY303511] | enhanced an immune response | activated both the salicylic acid-dependent defense pathway and the jasmonic acid-dependent defense pathway | – |
| Cn1cnc(=N)c2nc[nH]c21 [Compound 3, 3MA] | enhanced an immune response | activated both the salicylic acid-dependent defense pathway and the jasmonic acid-dependent defense pathway | enhancement of immune response after elicitor application (innate immunity in rice): enhanced an immune response; resistance to a plant disease [3]: effective in enhancing resistance to a plant disease |
| B1 | – | – | salicylic acid accumulation level (tobacco leaves): ≤ 10,000 ng/g (fresh weight) |
